Columns and labels:
galectins = details: all galectins, cited from earlier work
galectin-3 = galectin-3 (Homo sapiens (Human), UniProt P17931); assay: Fluorescence polarization-based galectin-3 inhibition assay; type: binding; details: calculated from test by fluorescence polarization at the tested conc.
Excerpt: (§1) The known galectin inhibitors galactose and N-acetyllactosamine methyl glycosides were included as reference compounds.
(§2) Identification of the substances was made by HRMS (Micromass Q-tof micro) and NMR (Bruker Ultrashield 400 plus, 400 MHz). Chemical shifts are reported downfield from Me4Si using residual CHD2Cl (7.26 ppm) or CHD2OD (3.35 ppm) as reference. Chemical shifts and coupling constants were obtained from ^1H-NMR and proton resonances were assigned from COSY experiments. Purification was made by RF-HPLC (Beckman, system gold) or flash chromatography, using silica gel (Davisil 35-70 μm, 60 Å). Reactions were followed by TLC (Aluminum sheet, silica gel 60 F254) observed by UV light, H2SO4(aq) or a iso-vanillin/H2SO4/EtOH solution. THF and Et2O were dried over sodium/benzophenone and distilled. CH2Cl2 was dried by molecular sieves (4 Å, 1.6 mm). Other solvents and reagents were commercially available and used without further purifications. Fluorescence polarization experiments were performed on a PolarStar instrument (BMG, Offenburg; Germany). Evaluation of 7, 15-19, and 22 as inhibitors of galectins was performed by use of fluorescence polarization as described in the literature (Sörme et al., 2003a, 2004).

galectin-1 = galectin-1 (Homo sapiens (Human), UniProt P09382); assay: Fluorescence polarization-based galectin-1 inhibition assay; type: binding; details: calculated from test by fluorescence polarization at the tested conc.
Sequence of galectin-1 (P09382 whole entry, species assumed): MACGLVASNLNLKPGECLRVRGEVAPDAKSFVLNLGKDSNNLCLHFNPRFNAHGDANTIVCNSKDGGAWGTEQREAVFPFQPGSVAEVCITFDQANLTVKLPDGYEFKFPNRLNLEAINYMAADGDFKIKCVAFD
Excerpt: as §1, §2

Sequence of galectin-3 (P17931 whole entry): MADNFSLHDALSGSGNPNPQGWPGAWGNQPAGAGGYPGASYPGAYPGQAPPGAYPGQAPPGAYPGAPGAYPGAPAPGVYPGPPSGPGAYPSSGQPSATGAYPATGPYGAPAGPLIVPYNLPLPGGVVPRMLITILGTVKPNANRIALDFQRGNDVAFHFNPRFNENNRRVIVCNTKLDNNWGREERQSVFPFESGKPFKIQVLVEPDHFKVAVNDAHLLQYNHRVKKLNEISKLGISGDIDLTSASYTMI

Kd (galectin-3) [µM]	Kd (galectin-1) [µM]	Compound	affinity relative to lactose (galectins; compared with lactose)	Kd (galectins) [µM]
0.55	0.35	OC[C@H]1O[C@@H](S[C@@H]2CCC[C@H](n3cc(-c4ccsc4)nn3)[C@H]2O)[C@H](O)[C@@H](n2cc(-c3ccsc3)nn2)[C@H]1O [Compound 18, ((1R,2R,3S)-2-hydroxy-3-(4-(3-thiopheneyl)-1H-1,2,3-triazol-1-yl)-cyclohexyl) 3-deoxy-3-(4-(3-thienyl)-1H-1,2,3-triazol-1-yl)-1-thio-β-D-galactopyranoside]		
0.23	1.9	OC[C@H]1O[C@@H](S[C@@H]2CCC[C@H](n3cc(-c4ccccc4F)nn3)[C@H]2O)[C@H](O)[C@@H](n2cc(-c3ccccc3F)nn2)[C@H]1O [Compound 15, ((1R,2R,3S)-2-hydroxy-3-(4-(2-fluorophenyl)-1H-1,2,3-triazol-1-yl)-cyclohexyl) 3-deoxy-3-(4-(2-fluorophenyl)-1H-1,2,3-triazol-1-yl)-1-thio-β-D-galactopyranoside]		
0.21	1.2	OC[C@H]1O[C@@H](S[C@@H]2CCC[C@H](n3cc(-c4ccc(F)cc4)nn3)[C@H]2O)[C@H](O)[C@@H](n2cc(-c3ccc(F)cc3)nn2)[C@H]1O [Compound 17, ((1R,2R,3S)-2-hydroxy-3-(4-(4-fluorophenyl)-1H-1,2,3-triazol-1-yl)-cyclohexyl) 3-deoxy-3-(4-(4-fluorophenyl)-1H-1,2,3-triazol-1-yl)-1-thio-β-D-galactopyranoside]		
	1.5	OC[C@H]1O[C@@H](S[C@@H]2CCC[C@H](n3cc(-c4cccc(F)c4)nn3)[C@H]2O)[C@H](O)[C@@H](n2cc(-c3cccc(F)c3)nn2)[C@H]1O [Compound 16, ((1R,2R,3S)-2-hydroxy-3-(4-(3-fluorophenyl)-1H-1,2,3-triazol-1-yl)-cyclohexyl) 3-deoxy-3-(4-(3-fluorophenyl)-1H-1,2,3-triazol-1-yl)-1-thio-β-D-galactopyranoside]		

Further lines, the compound ahead of its results:

Compound	Kd (galectin-3) [µM]	Kd (galectin-1) [µM]	affinity relative to lactose (galectins; compared with lactose)	Kd (galectins) [µM]
O=C[C@H](O)[C@@H](O)[C@@H](O)[C@H](O)CO [D-galactose]			50-100 times lower	
CCCNC(=O)c1cn(C2CCC[C@@H](S[C@@H]3OC(CO)[C@H](O)[C@H](n4cc(C(=O)NCCC)nn4)C3O)C2O)nn1 (stereo partly drawn) [Compound 19, ((1R,2R,3S)-2-hydroxy-3-(4-(propylcarbamoyl)-1H-1,2,3-triazol-1-yl)-cyclohexyl)-3-deoxy-3-(4-(propylcarbamoyl)-1H-1,2,3-triazol-1-yl)-thio-β-D-galactopyranoside]	0.19	1.3		
CCCNC(=O)c1cn([C@H]2[C@@H](O)[C@@H](CO)O[C@@H](O[C@@H]3CCC[C@H](n4cc(C(=O)NCCC)nn4)[C@H]3O)[C@@H]2O)nn1 [Compound 7, ((1R,2R,3S)-2-hydroxy-3-(4-(N-(1-propyl)-carbamoyl)-1H-1,2,3-triazol-1-yl)cyclohexyl) 3-deoxy-(3-(4-(N-(1-propyl)-carbamoyl)-1H-1,2,3-triazol-1-yl))-β-D-galactopyranoside]	0.43			
OC[C@H]1O[C@@H](O[C@H]2[C@H](O)[C@@H](O)C(O)O[C@@H]2CO)[C@H](O)[C@@H](O)[C@H]1O (some centres unmarked) [lactose]				500 to 1000
O=C(NC1CCC[C@@H](S[C@@H]2OC(CO)[C@H](O)[C@H](NC(=O)c3ccc(Cl)cc3)C2O)C1O)c1ccc(Cl)cc1 (stereo partly drawn) [Compound 23, ((1R,2R,3S)-2-hydroxy-3-(4-chlorobenzamido)-cyclohexyl)-3-deoxy-3-(4-chlorobenzamido)-thio-β-D-galactopyranoside]	1.4	6.3		
